Test system: VgEcR and RXR
Experiment: murA induction of the E/GRE/Hsmin promoter: GFP+ cells by fluorescent microscopy and FACS, Western blot of GAL4-Oct-2Q(Q→A) and EGFP
Assay type: cell-based
Conditions: 72 h
Protocol: High titer virus were produced by calcium phosphate transfection of retroviral DNA constructs into the LinX amphotrophic retroviral packaging cell line (17) followed by incubation with dexamethasone/butyrate (1 μM/ml) of packagers at 32° C. for 3 days. Infections were carried out by harvesting supernatants from LinX packagers, filtered through a […] membrane (Millipore), followed by the addition of polybrene (8 μM) to supernatants, finally overlaying onto actively dividing host cells (70% confluent). Cells were gently spun at room temperature for 30 min, incubated at 32° C. for 6 h. […]
Western blot analysis and antibodies. […] Signal intensities were determined after background corrections by using Alpha-Imager 2000 Documentation and Analysis Software (Alpha Innotech, San Leandro, Calif.). The percentage reduction in band intensity for each concentration of murA was calculated relative to the uninduced samples and normalized against β-tubulin.
The ecdysone inducible system is comprised of three Moloney murine leukemia virus (MoMLV)-based retroviral vectors, the two vectors expressing nuclear receptors/transcription factors VgEcR and RXR, and a third construct, pEind-RNAi expressing a chimeric transactivator GAL4-Oct-2^Q(Q→A), and an internal ribosomal entry site (IRES) linked enhanced green fluorescence protein (EGFP) under an inducible promoter E/GRE/Hsmin (FIG. 1A). […]

## CC(C)CC[C@@H](O)[C@](C)(O)[C@H]1CC[C@@]2(O)C3=CC(=O)[C@]4(O)C[C@@H](O)[C@@H](O)C[C@]4(C)[C@H]3[C@H](O)C[C@]12C [murA, muristerone A]
5 μM murA, versus untreated controls
  Levels of GAL4-Oct-2Q(Q→A) and EGFP protein (Western blot): increased levels
Sorted stable cells, 0.5 μM murA (microscopy), 5 μM murA (FACS)
  GFP+ cells following induction with murA: > 95%

From patent US20050164210A1, “Regulated polymerase III expression systems and related methods” (priority 2004, published 2005)
